For 56 compounds, inhibition and IC50 results are on record in patent US8546579B2, “Bicycloheteroaryl compounds as P2X7 modulators and uses thereof” (Evotec (US) Inc., priority 2006, dated 2013).

Like-named read-outs stand apart in the source and are kept apart here.

The target of the assay is T1, P2X7 receptor (Homo sapiens, UniProt Q99572).
T1 construct: host or cells: THP-1 cells differentiated with LPS and IFN-γ
T1 sequence (Q99572 1-595): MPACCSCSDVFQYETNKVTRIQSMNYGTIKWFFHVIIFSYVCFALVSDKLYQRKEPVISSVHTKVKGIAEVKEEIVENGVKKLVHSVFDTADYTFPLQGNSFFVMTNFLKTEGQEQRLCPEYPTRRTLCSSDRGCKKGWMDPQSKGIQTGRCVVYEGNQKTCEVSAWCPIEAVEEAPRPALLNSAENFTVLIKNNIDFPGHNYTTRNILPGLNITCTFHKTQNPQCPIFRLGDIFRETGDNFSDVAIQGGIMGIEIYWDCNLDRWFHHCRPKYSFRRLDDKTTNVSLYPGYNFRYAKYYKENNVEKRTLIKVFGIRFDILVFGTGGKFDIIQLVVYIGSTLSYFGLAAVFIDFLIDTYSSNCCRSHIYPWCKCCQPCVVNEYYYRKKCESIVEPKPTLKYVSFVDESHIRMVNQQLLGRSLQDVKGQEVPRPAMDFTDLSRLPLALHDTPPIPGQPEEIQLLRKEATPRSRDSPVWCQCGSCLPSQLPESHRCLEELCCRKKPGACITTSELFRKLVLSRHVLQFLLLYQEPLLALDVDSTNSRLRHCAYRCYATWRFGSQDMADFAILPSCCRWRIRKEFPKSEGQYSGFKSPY
Nature of the assay: IL-1β release assay in differentiated THP-1 cells stimulated with BzATP (Example 9). Set-up: inhibition: dose or concentration left out as unconfirmed. The format is cell-based. Particulars: for inhibition at 0.3 µM: 0.3 μM compound, read-out: IL-1β % Inhib. @ 0.3 μM; for inhibition at 0.3 µM / inhibition at 0.1 µM: differentiated THP-1 cells, BzATP 250 uM; for IC50: THP-1 cells, BzATP-stimulated IL-1β release, four parameter logistic fit; for inhibition: THP-1, read-out: IL-1β % Inhib.; for inhibition at 0.1 µM: 0.1 μM compound. An outline of the steps:
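THP-1 cells differentiated 16 h with LPS and IFN-γ (100 ng/mL each), re-primed 2 h with LPS, then compound-pretreated 30 min before 250 uM BzATP for 45 min. Supernatant IL-1β quantified by ELISA; background-adjusted percent inhibition fitted to four-parameter logistic for IC50.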

The mark [1] stands for this setting: symbols * to ****, read-out: IL-1β % Inhib. (asterisk symbols: at 0.1 μM).
The mark [2] stands for this setting: '*' class symbols, read-out: IL-1β % Inhib. (asterisk classes, 0.1 μM).

In the case of `CCOc1ccccc1CC(=O)Nc1cccc2c(=O)n(CCN3CCOCC3)ccc12` [Compound 1233], for the setting “symbols + to ++++”, the inhibition at 0.3 µM fell in the range of 0 to 25%. For `Cc1ccc(CCC(=O)Nc2cccc3c(=O)n(CCN(C)C)ccc23)cc1` [Compound 1002], the IC50 (in general, the concentration at which inhibition is half-maximal) was 0.0723 µM. Further, for the setting “'+' class symbols”, the inhibition at 0.3 µM is no less than 76%. With `COc1ccc(CC(=O)Nc2cccc3c(=O)n(CCN4CCOCC4)ccc23)cc1` [Compound 1212], the inhibition at 0.3 µM (symbols + to ++++) was in the range of 0 to 25%.

Consider `O=C(Nc1cccc2c(=O)n(Cc3ccc(OC(F)(F)F)cc3)ccc12)c1cc(Cl)ccc1Cl` [Compound 1561], for which the inhibition lay in the range of 0 to 25%. As to `COCCn1ccc2c(NC(=O)CCc3ccc(Cl)cc3)cccc2c1=O` [Compound 1335], the inhibition at 0.3 µM (symbols + to ++++) was 0 to 25%.

Consider `Cc1cc(C)c(CC(=O)Nc2cccc3c(=O)n(CC(C)(C)C)ccc23)c(C)c1` [Compound 1050], for which the inhibition at 0.3 µM ('+' class symbols) is 0 to 25%. `CC(=O)OCCn1ccc2c(NC(=O)c3ccc(C(F)(F)F)cc3C(F)(F)F)cccc2c1=O` [Compound 1014] had an IC50 of 0.326 µM. The inhibition at 0.3 µM ('+' class symbols) was 26 to 50%. Turning to `COc1cc(OC)cc(C(=O)Nc2cccc3c(=O)n(CC(C)(C)C)ccc23)c1` [Compound 1245], the inhibition at 0.1 µM under setting [1] is 0 to 25%. The compound `CCOc1ccccc1CC(=O)Nc1cccc2c(=O)n(Cc3cccnc3)ccc12` [Compound 1366] returned an IC50 of 0.41 µM. For the same compound, the inhibition at 0.3 µM (symbols + to ++++) lay in the range of 26 to 50%. On to `CC1CCC(C(=O)Nc2cccc3c(=O)n(CCN(C)C)ccc23)CC1` (centres unmarked) [Compound 1034], for which the inhibition at 0.1 µM under setting [2] lay in the range of 26 to 50%. Take `CN(C)CCn1ccc2c(NC(=O)Cc3csc4ccccc34)cccc2c1=O` [Compound 1171]: the inhibition at 0.3 µM ('+' class symbols) was in the range of 0 to 25%. With `CN1CCC(Cn2ccc3c(NC(=O)CC4CC5CC[C@H]4C5)cccc3c2=O)CC1` (some centres unmarked) [Compound 1479], the inhibition was in the range of 0 to 25%.

For the compound `Cc1ccc(Cl)cc1C(=O)Nc1cccc2c(=O)n(CCN(C)C)ccc12` [Compound 1180], the inhibition at 0.3 µM ('+' class symbols) lay in the range of 0 to 25%. With `O=C(CCc1ccc(Cl)cc1)Nc1cccc2c(=O)n(Cc3cccnc3)ccc12` [Compound 1455], the inhibition lay within 0 to 25%.

Take `Cc1ccccc1CCC(=O)Nc1cccc2c(=O)n(CC3CCOCC3)ccc12` [Compound 1396]: the inhibition at 0.1 µM under setting [1] was 0 to 25%. For the compound `O=C(CCCc1ccccc1)Nc1cccc2c(=O)n(CCCN3CCCC3=O)ccc12` [Compound 1525], the inhibition was in the range of 0 to 25%. Take `CN(C)CCn1ccc2c(NC(=O)CCc3ccc(S(C)(=O)=O)cc3)cccc2c1=O` [Compound 1009]: the half-maximal inhibitory concentration (IC50) was greater than 1 µM. The inhibition at 0.3 µM ('+' class symbols) lay in the range of 0 to 25%. The compound `CC(c1ccccn1)n1ccc2c(NC(=O)Cc3ccc(C(F)(F)F)cc3)cccc2c1=O` (centres unmarked) [Compound 1634] had an IC50 of 0.262 µM. Moreover, the inhibition at 0.3 µM ("+" class symbols) fell in the range of 51 to 75%. Compound `CC(=O)OCCn1ccc2c(NC(=O)CCc3cc(C(F)(F)F)cc(C(F)(F)F)c3)cccc2c1=O` [Compound 1376] yielded an IC50 of 0.731 µM. Besides, the inhibition at 0.3 µM (symbols + to ++++) lay in the range of 0 to 25%. Turning to `O=C(Nc1cccc2c(=O)n(Cc3cccnc3)ccc12)c1ccc2ccccc2c1` [Compound 1448], the inhibition lay within 0 to 25%.

Regarding `O=C(Nc1cccc2c(=O)n(Cc3ccc(OC(F)(F)F)cc3)ccc12)c1cccc2c1OCCO2` [Compound 1595], the inhibition lay in the range of 0 to 25%. As for `COc1ccc(CC(=O)Nc2cccc3c(=O)n(Cc4cccnc4)ccc23)cc1C` [Compound 1367], the inhibition at 0.3 µM (symbols + to ++++) fell in the range of 0 to 25%.

As to `Cc1ccc(C(=O)Nc2cccc3c(=O)n(CC4CCOCC4)ccc23)cc1Cl` [Compound 1113], the inhibition at 0.3 µM ('+' class symbols) fell in the range of 0 to 25%. As for `CC(C)(C)Cn1ccc2c(NC(=O)Cc3cccc4ccccc34)cccc2c1=O` [Compound 1250], the inhibition at 0.3 µM (symbols + to ++++) was 0 to 25%. Consider `CN(C)CCn1ccc2c(NC(=O)Cc3ccc(Cl)c(Cl)c3)cccc2c1=O` [Compound 1386], for which the 50% inhibitory concentration (IC50) was found to be 0.238 µM. In addition, under “symbols + to ++++”, the inhibition at 0.3 µM fell in the range of 51 to 75%. In the case of `O=C(Nc1cccc2c(=O)n(Cc3cccnc3)ccc12)c1ccc2c(c1)OCCCO2` [Compound 1364], the inhibition at 0.3 µM (symbols + to ++++) lay in the range of 0 to 25%. In the case of `COc1ccc(C(=O)Nc2cccc3c(=O)n(CC4CCN(C)CC4)ccc23)cc1C` [Compound 1490], the inhibition fell in the range of 0 to 25%. With `CCOc1ccc(C(=O)Nc2cccc3c(=O)n(CC4CCOCC4)ccc23)c(O)c1` [Compound 1025], the inhibition at 0.3 µM ('+' class symbols) fell in the range of 0 to 25%. For the compound `COCCn1ccc2c(NC(=O)CCc3cccc(OC)c3)cccc2c1=O` [Compound 1064], under setting [2], the inhibition at 0.1 µM was 0 to 25%. As for `Cc1ccccc1C(=O)Nc1cccc2c(=O)n(CC(C)(C)C)ccc12` [Compound 1413], the inhibition was 0 to 25%.

In the case of `COc1ccc(CC(=O)Nc2cccc3c(=O)n(CCN(C)C)ccc23)cc1C` [Compound 1178], the inhibition at 0.3 µM ('+' class symbols) fell in the range of 0 to 25%.

With `CC(C(=O)Nc1cccc2c(=O)n(CCN(C)C)ccc12)c1ccccc1` (centres unmarked) [Compound 1148], the inhibition at 0.3 µM ('+' class symbols) was in the range of 0 to 25%. The same measure, in the same setting: the value for `O=C(CCc1ccc2c(c1)OCO2)Nc1cccc2c(=O)n(CC3CCOCC3)ccc12` [Compound 1032] was 0 to 25%. With `COCCn1ccc2c(NC(=O)Cc3cc(OC)ccc3OC)cccc2c1=O` [Compound 1313], the inhibition at 0.1 µM under setting [1] was in the range of 0 to 25%.

As to `O=C(Cc1cccc2ccccc12)Nc1cccc2c(=O)n(Cc3ccc(OC(F)(F)F)cc3)ccc12` [Compound 1573], the inhibition lay within 0 to 25%.

With `CN(C)CCn1ccc2c(NC(=O)Cc3ccccc3Br)cccc2c1=O` [Compound 1613], the IC50 was greater than 1 µM. Besides, the inhibition at 0.3 µM ("+" class symbols) lay in the range of 0 to 25%. With `COc1cc(CC(=O)Nc2cccc3c(=O)n(Cc4ccc(OC(F)(F)F)cc4)ccc23)cc(OC)c1` [Compound 1589], the inhibition was 0 to 25%.

As to `CCOc1cccc(C(=O)Nc2cccc3c(=O)n(CC(C)(C)C)ccc23)c1` [Compound 1053], for the setting “'+' class symbols”, the inhibition at 0.3 µM lay in the range of 0 to 25%. Consider `COCCn1ccc2c(NC(=O)Cc3ccc(OC)cc3)cccc2c1=O` [Compound 1316], for which the inhibition at 0.3 µM (symbols + to ++++) was in the range of 0 to 25%. For `COc1ccc(CCC(=O)Nc2cccc3c(=O)n(CC4CCN(C)CC4)ccc23)cc1` [Compound 1468], the inhibition was 0 to 25%.

Consider `Cc1ccccc1CCC(=O)Nc1cccc2c(=O)n(CCN3CCOCC3)ccc12` [Compound 1404], for which the inhibition lay in the range of 0 to 25%.

With `COc1ccc(CC(=O)Nc2cccc3c(=O)n(Cc4cccnc4)ccc23)cc1` [Compound 1355], the inhibition at 0.3 µM (symbols + to ++++) was 0 to 25%. The same measure, in the same setting: the value for `Cn1ccc2c(NC(=O)C3C[C@@H]4CC[C@H]3C4)cccc2c1=O` (some centres unmarked) [Compound 1306] was 0 to 25%. Consider `Cc1ccc(Cl)c(C(=O)Nc2cccc3c(=O)n(CCCN4CCCC4=O)ccc23)c1` [Compound 1540], for which the inhibition fell in the range of 0 to 25%. As for `Cc1cccc(CC(=O)Nc2cccc3c(=O)n(CCN4CCOCC4)ccc23)c1` [Compound 1211], the inhibition at 0.3 µM (symbols + to ++++) lay in the range of 0 to 25%. For the compound `CN(C)CCn1ccc2c(NC(=O)CCc3ccc4c(c3)OCO4)cccc2c1=O` [Compound 1038], under “'+' class symbols”, the inhibition at 0.3 µM was 0 to 25%. Take `Cc1ccccc1CCC(=O)Nc1cccc2c(=O)n(Cc3cccnc3)ccc12` [Compound 1406]: the inhibition fell in the range of 0 to 25%. With `O=C(Nc1cccc2c(=O)n(CCN3CCOCC3)ccc12)c1cc2ccccc2o1` [Compound 1216], under “symbols + to ++++”, the inhibition at 0.3 µM fell in the range of 0 to 25%. For the compound `Cc1cc(C(=O)Nc2cccc3c(=O)n(CCCN4CCCC4=O)ccc23)ccc1F` [Compound 1536], the inhibition lay within 0 to 25%.

In the case of `Cc1ccccc1CCC(=O)Nc1cccc2c(=O)n(CC(C)(C)C)ccc12` [Compound 1048], the inhibition at 0.1 µM under setting [2] was in the range of 0 to 25%.

`O=C(Cc1csc2ccccc12)Nc1cccc2c(=O)n(CC3CCOCC3)ccc12` [Compound 1119]: the inhibition at 0.3 µM ('+' class symbols) lay within 0 to 25%. Regarding `CC(=O)OCCn1ccc2c(NC(=O)Cc3ccc(C(F)(F)F)cc3)cccc2c1=O` [Compound 1016], the IC50 stood at 0.338 µM. Moreover, under “'+' class symbols”, the inhibition at 0.3 µM was no less than 76%. Turning to `CCOc1ccc(C(=O)Nc2cccc3c(=O)n(C)ccc23)cc1` [Compound 1291], the inhibition at 0.3 µM (symbols + to ++++) is 0 to 25%. In the case of `COc1ccccc1CCC(=O)Nc1cccc2c(=O)n(Cc3ccc(OC(F)(F)F)cc3)ccc12` [Compound 1571], the inhibition was 0 to 25%.

As for `CCOc1ccccc1CC(=O)Nc1cccc2c(=O)n(CCCN3CCCC3=O)ccc12` [Compound 1538], the inhibition was 26 to 50%. Take `Cc1cc(C(=O)Nc2cccc3c(=O)n(Cc4ccc(OC(F)(F)F)cc4)ccc23)ccc1F` [Compound 1602]: the inhibition at 0.1 µM ("*" class symbols, read-out: IL-1β % Inhib. ("*" symbols: at 0.1 μM)) lay within 0 to 25%.
